Results as given in patent US6355628B1, “Combination therapy using pentafluorobenzenesulfonamides” (priority 1999, dated 2002).

Legend:
[1] = Weight loss and mortality in MX-1 xenograft study; format: in vivo, athymic nude mice; conditions: efficacious dose, administered alone
Experimental: Its activity is not affected by the multidrug resistance (MDR) phenotype.
Administration of suboptimal doses of 3 mg/kg cisplatin i.v. bolus or 15 mg/kg/hr compound 1 i.v. infusion for 4 hours was compared with the efficacy of coadministration against MX-1 tumors.

[2] = test system: MX-1 human mammary tumor xenografts; test: MX-1 human mammary tumor xenografts in athymic nude mice, tumor growth; format: in vivo
β-tubulin = test: Tubulin polymerization / binding to β-tubulin; format: biochemical; conditions: by covalently binding to β-tubulin
various tumor cell lines = test: Growth and clonogenic potential of tumor cell lines in culture; format: cell-based

Row | SMILES | body weight loss accompanying efficacy, single agent [1] | efficacy against MX-1 tumor, single agent ([2]; efficacious dose, not stated) | tubulin polymerization (β-tubulin) | inhibiting the growth of MX-1 xenografts, single agent ([2]; 30 mg/kg/hr infused i.v. for 4 hours) | activity versus multidrug resistance (MDR) phenotype (various tumor cell lines) | growth and clonogenic potential of various tumor cell lines in culture (various tumor cell lines)
1 | N.N.[Cl][Pt][Cl] [Cisplatin, cis-diaminedichloroplatinum (II), reference compound] | accompanied by body weight loss | very efficacious |  |  |  | 
2 | COc1ccc(NS(=O)(=O)c2c(F)c(F)c(F)c(F)c2F)cc1F.[Na] [Compound 1, 2-Fluoro-1-methoxy-4-(pentafluorophenylsulfonamido)benzene, sodium salt] | accompanied by body weight loss |  | prevents tubulin polymerization | very effective | not affected | inhibits the growth and clonogenic potential
